Assays:
rats = assay: Inhibition of Conditioned Avoidance Response in rats; assay type: in vivo; details: Rattus norvegicus, sc, 1.5 hrs.
From the text: (b) Inhibition of conditioned behavior in rats. These tests have been described, and the importance of coordinating the compounds with these tests and the activities shown thereby is described in detail in the following literature: (b) Inhibition of Conditioned Avoidance Response "Neuroleptics characteristically interrupt the response to the warning stimulus (avoidance) without at the same time interrupting the response to the noxious stimulus (escape) which follows it." An introduction to Psycho-Pharmacology, Eds. Rech and Moore, New York, p. 264 (1971); Courvoisier, S., et al., in Arch. Int. Pharmacodyn. 92, 305 (1953); Jacobsen, E., in Psychotrophic Drugs, […], Amsterdam, p. 119 (1957). Jacobsen and Sonne, in Acta Pharmacol. et Toxicol. 11, pp. 135-147 (1955).

mice = assay: Inhibition of Exploratory Behavior (Climbing) in mice; assay type: in vivo; details: Mus musculus, sc, 1 hr.
From the text: (a) Inhibition of climbing in mice (inhibition of exploratory behavior). These tests have been described, and the importance of coordinating the compounds with these tests and the activities shown thereby is described in detail in the following literature: (a) Inhibition of Exploratory Behavior (Climbing) van Rossum, J.M., et al., in The Neuroleptics, Modern Problems of Pharmaco-[…], Vol. 5, […]., in Arch. Int. Pharmacodyn 126, 238 (1960). Sandberg, S., in Arzneimittelforschung 9, 203 (1958).

Acute Toxicity in Mice = details: mouse, in vivo

| Compound | ED50 (rats) [mg/kg] | ED50 (mice) [mg/kg] | LD50 at 48 h (Acute Toxicity in Mice; po) [mg/kg] | LD50 at 48 h (Acute Toxicity in Mice; sc) [mg/kg] |
| --- | --- | --- | --- | --- |
| Cc1ccc(C(=O)C2(O)CCN(CCCC(=O)c3ccc(F)cc3)CC2)cc1 [CH3, 1-[3-(p-fluorobenzoyl)propyl]-4-(p-methylbenzoyl)-4-hydroxypiperidine] | 0.32 | 0.8 | > 1000 | > 1000 |
| O=C(CCCN1CCC(O)(C(=O)c2ccc(Cl)cc2)CC1)c1ccc(F)cc1 [Cl, 1-[3-(p-fluorobenzoyl)propyl]-4-(p-chlorobenzoyl)-4-hydroxypiperidine] | 0.37 | 0.95 | 630 | > 1000 |
| Cl.O=C(CCCN1CCC(O)(C(=O)c2ccc(F)cc2)CC1)c1ccc(F)cc1 [F, 1-[3-(p-fluorobenzoyl)propyl]-4-(p-fluorobenzoyl)-4-hydroxypiperidine hydrochloride] | 0.13 | 0.19 | 500 | > 1000 |
| COc1ccc(C(=O)C2(O)CCN(CCCC(=O)c3ccc(F)cc3)CC2)cc1 [OCH3, 1-[3-(p-fluorobenzoyl)propyl]-4-(p-methoxybenzoyl)-4-hydroxypiperidine] | 0.24 | 1 | 890 | > 1000 |

From US4021564A, “Neuroleptic piperidine compounds” (AB Ferrosan, priority 1975, dated 1977)
